Experimental data published in ChEMBL document CHEMBL1201862, “PubChem BioAssay data set” (2004).
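In this assay, cells in 96-well plates receive the compound at five concentrations for 48 hours. Endpoints are linearly interpolated between the surrounding concentrations. At the GI50, growth is halved.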 Active and inactive are the calls of the source. Cut-off read from the data, not from the text of the source: active = GI50 up to about 1.1 µM and inactive = higher.

Legend:
Assay in all cases: DTP human tumour cell line panel, 48 h
IGROV-1 = system: IGROV-1
RXF 393 = system: RXF 393
UACC-62 = system: UACC-62
MDA-N = system: MDA-N
Malme-3M = system: Malme-3M
UACC-257 = system: UACC-257
HOP-92 = system: HOP-92
MCF7 = system: MCF7
OVCAR-5 = system: OVCAR-5
OVCAR-4 = system: OVCAR-4
DU-145 = system: DU-145
A498 = system: A498
SF-295 = system: SF-295
TK-10 = system: TK-10
NCI-H522 = system: NCI-H522
MDA-MB-435 = system: MDA-MB-435
SNB-19 = system: SNB-19
OVCAR-3 = system: OVCAR-3
SK-MEL-28 = system: SK-MEL-28
NCI-H23 = system: NCI-H23
Hs-578T = system: Hs-578T
EKVX = system: EKVX
SNB-75 = system: SNB-75
COLO 205 = system: COLO 205
HT-29 = system: HT-29
KM12 = system: KM12
OVCAR-8 = system: OVCAR-8
LOX IMVI = system: LOX IMVI
RPMI-8226 = system: RPMI-8226
786-0 = system: 786-0
SW-620 = system: SW-620
SK-MEL-5 = system: SK-MEL-5
SF-539 = system: SF-539
BT-549 = system: BT-549
U-251 = system: U-251
HOP-62 = system: HOP-62
MDA-MB-231 = system: MDA-MB-231
HCT-15 = system: HCT-15
PC-3 = system: PC-3
ACHN = system: ACHN
MOLT-4 = system: MOLT-4
HCT-116 = system: HCT-116
NCI-H460 = system: NCI-H460
HL-60 = system: HL-60
K562 = system: K562
M14 = system: M14
A549 = system: A549
T47D = system: T47D
SN12C = system: SN12C
SK-MEL-2 = system: SK-MEL-2
CCRF-CEM = system: CCRF-CEM
NCI/ADR-RES = system: NCI/ADR-RES
SF-268 = system: SF-268
SK-OV-3 = system: SK-OV-3
UO-31 = system: UO-31
CAKI-1 = system: CAKI-1
NCI-H226 = system: NCI-H226
HCC 2998 = system: HCC 2998

SMILES: COc1ccc2nc(NCN3C(=O)c4ccccc4C3=O)sc2c1
- GI50 (IGROV-1): > 100 µM (inactive)
- GI50 (RXF 393): > 100 µM (inactive)
- GI50 (UACC-62): > 100 µM (inactive)
- GI50 (MDA-N): > 100 µM (inactive)
- GI50 (Malme-3M): > 100 µM (inactive)
- GI50 (UACC-257): > 100 µM (inactive)
- GI50 (HOP-92): > 100 µM (inactive)
- GI50 (MCF7): > 100 µM (inactive)
- GI50 (OVCAR-5): > 100 µM (inactive)
- GI50 (OVCAR-4): > 100 µM (inactive)
- GI50 (DU-145): > 100 µM (inactive)
- GI50 (A498): > 100 µM (inactive)
- GI50 (SF-295): > 100 µM (inactive)
- GI50 (TK-10): > 100 µM (inactive)
- GI50 (NCI-H522): > 100 µM (inactive)
- GI50 (MDA-MB-435): > 100 µM (inactive)
- GI50 (SNB-19): > 100 µM (inactive)
- GI50 (OVCAR-3): > 100 µM (inactive)
- GI50 (SK-MEL-28): > 100 µM (inactive)
- GI50 (NCI-H23): > 100 µM (inactive)
- GI50 (Hs-578T): > 100 µM (inactive)
- GI50 (EKVX): > 100 µM (inactive)
- GI50 (SNB-75): > 100 µM (inactive)
- GI50 (COLO 205): > 100 µM (inactive)
- GI50 (HT-29): > 100 µM (inactive)
- GI50 (KM12): > 100 µM (inactive)
- GI50 (OVCAR-8): > 100 µM (inactive)
- GI50 (LOX IMVI): > 100 µM (inactive)
- GI50 (RPMI-8226): > 100 µM (inactive)
- GI50 (786-0): > 100 µM (inactive)
- GI50 (SW-620): > 100 µM (inactive)
- GI50 (SK-MEL-5): > 100 µM (inactive)
- GI50 (SF-539): > 100 µM (inactive)
- GI50 (BT-549): > 100 µM (inactive)
- GI50 (U-251): > 100 µM (inactive)
- GI50 (HOP-62): > 100 µM (inactive)
- GI50 (MDA-MB-231): > 100 µM (inactive)
- GI50 (HCT-15): > 100 µM
- GI50 (PC-3): > 100 µM (inactive)
- GI50 (ACHN): > 100 µM (inactive)
- GI50 (MOLT-4): > 100 µM (inactive)
- GI50 (HCT-116): > 100 µM (inactive)
- GI50 (NCI-H460): > 100 µM (inactive)
- GI50 (HL-60): > 100 µM (inactive)
- GI50 (K562): > 100 µM (inactive)
- GI50 (M14): > 100 µM (inactive)
- GI50 (A549): > 100 µM (inactive)
- GI50 (T47D): > 100 µM (inactive)
- GI50 (SN12C): > 100 µM (inactive)
- GI50 (SK-MEL-2): > 100 µM (inactive)
- GI50 (CCRF-CEM): > 100 µM (inactive)
- GI50 (NCI/ADR-RES): > 100 µM (inactive)
- GI50 (SF-268): > 100 µM (inactive)
- GI50 (SK-OV-3): > 100 µM (inactive)
- GI50 (UO-31): > 100 µM (inactive)

SMILES: O=c1c2c3c(sc2nc2n1NC=NN2)CCCC3
- GI50 (IGROV-1): 26.6 µM (inactive)
- GI50 (RXF 393): 25.2 µM (inactive)
- GI50 (UACC-62): 17.6 µM (inactive)
- GI50 (MDA-N): 16 µM (inactive)
- GI50 (Malme-3M): 21.4 µM (inactive)
- GI50 (UACC-257): 19.9 µM (inactive)
- GI50 (CAKI-1): 18 µM (inactive)
- GI50 (HOP-92): 18.1 µM (inactive)
- GI50 (MCF7): 13.8 µM (inactive)
- GI50 (OVCAR-5): 18.2 µM (inactive)
- GI50 (OVCAR-4): 17.6 µM (inactive)
- GI50 (DU-145): 36.6 µM (inactive)
- GI50 (A498): > 53.6 µM (inactive)
- GI50 (SF-295): 15.8 µM (inactive)
- GI50 (TK-10): 24 µM (inactive)
- GI50 (NCI-H522): 16.3 µM (inactive)
- GI50 (NCI-H226): 17.3 µM (inactive)
- GI50 (MDA-MB-435): 12.8 µM (inactive)
- GI50 (SNB-19): 42.7 µM (inactive)
- GI50 (OVCAR-3): 1.28 µM (inactive)
- GI50 (SK-MEL-28): 17.7 µM (inactive)
- GI50 (NCI-H23): 26.2 µM (inactive)
- GI50 (Hs-578T): 21.8 µM (inactive)
- GI50 (EKVX): 13.3 µM (inactive)
- GI50 (SNB-75): 23.8 µM (inactive)
- GI50 (COLO 205): 25.4 µM (inactive)
- GI50 (HT-29): 17.5 µM (inactive)
- GI50 (KM12): 18.1 µM (inactive)
- GI50 (OVCAR-8): 24.7 µM (inactive)
- GI50 (LOX IMVI): 2.49 µM (inactive)
- GI50 (RPMI-8226): 20.5 µM (inactive)
- GI50 (786-0): 17.6 µM (inactive)
- GI50 (SW-620): 17.6 µM (inactive)
- GI50 (SK-MEL-5): 16.4 µM (inactive)
- GI50 (SF-539): 17.4 µM (inactive)
- GI50 (BT-549): 17.5 µM (inactive)
- GI50 (U-251): 16 µM (inactive)
- GI50 (MDA-MB-231): 13.4 µM (inactive)
- GI50 (HCT-15): 17.4 µM
- GI50 (PC-3): 24.2 µM (inactive)
- GI50 (ACHN): 16.7 µM (inactive)
- GI50 (MOLT-4): 0.323 µM (active)
- GI50 (HCT-116): 17.9 µM (inactive)
- GI50 (NCI-H460): 20.2 µM (inactive)
- GI50 (HL-60): 1.2 µM (inactive)
- GI50 (K562): 2.15 µM (inactive)
- GI50 (HCC 2998): 24.4 µM (inactive)
- GI50 (M14): 25.8 µM (inactive)
- GI50 (A549): > 83.4 µM (inactive)
- GI50 (T47D): 31.8 µM (inactive)
- GI50 (SN12C): 17.9 µM (inactive)
- GI50 (SK-MEL-2): 19.4 µM (inactive)
- GI50 (CCRF-CEM): 0.731 µM (active)
- GI50 (NCI/ADR-RES): 26.7 µM (inactive)
- GI50 (SF-268): 17.5 µM (inactive)
- GI50 (SK-OV-3): 42.8 µM (inactive)
- GI50 (UO-31): > 44.7 µM (inactive)
